# Laboratory results as given in patent publication US20230167127A1, “COMPOUNDS AND THEIR USE IN THE TREATMENT OF BACTERIAL INFECTION” (Hoffmann-La Roche Inc., priority 2020, published 2023).
# Structures can show the parent of a compound that is named as a salt.
# Tested on: Escherichia coli ATCC 25922
# Test: 50% growth inhibitory concentration (IC50) determination, Iso-Sensitest broth dilution
# Assay type: cell-based
# Settings: Escherichia coli, ATCC25922, 16 h, strain Escherichia coli ATCC 25922; 10-point broth dilution, optical density at 600 nm over 16 h; read-out: Escherichia coli growth inhibition IC50
# How it was run: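 Growth was tracked as optical density at 600 nm every 20 minutes for 16 h at 35±2° C. Compounds from DMSO stocks were serially diluted twofold over 10 points (e.g. 50–0.097 μM final) in Iso-Sensitest broth. Inhibition computed in log-phase growth to give IC50.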
row,SMILES,IC50
1,"Cc1cnc(C)c2c1CC(CNCCC1CN(c3cnc4c(n3)NC(=O)CO4)C(=O)O1)C2 (centres unmarked) [Example 268, 6-[5-[2-[(1,4-Dimethyl-6,7-dihydro-5H-cyclopenta[c]pyridin-6-yl)methylamino]ethyl]-2-oxo-1,3-oxazolidin-3-yl]-4H-pyrazino[2,3-b][1,4]oxazin-3-one]",< 0.0977 µM
2,"Cc1c(OCC2(N)CC2)nc(C#N)c2c1CC(CNCCC1CN(c3ccc4c(n3)NC(=O)CO4)C(=O)O1)C2 (centres unmarked) [Example 213, 3-[(1-aminocyclopropyl)methoxy]-4-methyl-6-[[2-[2-oxo-3-(3-oxo-4H-pyrido[3,2-b][1,4]oxazin-6-yl)-1,3-oxazolidin-5-yl]ethylamino]methyl]-6,7-dihydro-5H-cyclopenta[c]pyridine-1-carbonitrile]",< 0.0977 µM
3,"N#Cc1cccc2c1C(O)C(CNCCC1CN(c3ccc4c(n3)NC(=O)CO4)C(=O)O1)C2 (racemic) [Example 151, rac-2,3-trans-3-hydroxy-2-[[2-[2-oxo-3-(3-oxo-4H-pyrido[3,2-b][1,4]oxazin-6-yl)-1,3-oxazolidin-5-yl]ethylamino]methyl]-2,3-dihydro-1H-indene-4-carbonitrile; formic acid]",0.14 µM
4,"N#Cc1cccc2c1CC(NCCCC1CN(c3ccc4c(n3)NC(=O)CO4)C(=O)O1)C2 (centres unmarked) [Example 13, 2-[3-[2-oxo-3-(3-oxo-4H-pyrido[3,2-b] [1,4]oxazin-6-yl)-1,3-oxazolidin-5-yl]propylamino]-2,3-dihydro-1H-indene-4-carbonitrile; formic acid]",< 0.0977 µM
5,"Cc1nc(OC[C@@H]2CCN2)c(C)c2c1CC(CNCCC1CN(c3ccc4c(n3)NC(=O)CO4)C(=O)O1)C2 (stereo partly drawn) [Example 200, 6-[5-[2-[[3-[[(2S)-azetidin-2-yl]methoxy]-1,4-dimethyl-6,7-dihydro-5H-cyclopenta[c]pyridin-6-yl]methylamino]ethyl]-2-oxo-1,3-oxazolidin-3-yl]-4H-pyrido[3,2-b][1,4]oxazin-3-one]",0.32 µM
6,"Cc1c(OCC(=O)NC(C)C)ncc2c1CC(CNCCC1CN(c3ccc4c(n3)NC(=O)CO4)C(=O)O1)C2 (centres unmarked) [Example 224, N-isopropyl-2-((4-methyl-6-(((2-(2-oxo-3-(3-oxo-3,4-dihydro-2H-pyrido[3,2-b][1,4]oxazin-6-yl)oxazolidin-5-yl)ethyl)amino)methyl)-6,7-dihydro-5H-cyclopenta[c]pyridin-3-yl)oxy)acetamide]",0.791 µM
7,"N#Cc1cc(OC[C@H](N)CO)cc2c1CC(CNCCC1CN(c3ccc4c(n3)NC(=O)CO4)C(=O)O1)C2 (stereo partly drawn) [Example 236, 6-[(2R)-2-Amino-3-hydroxypropoxy]-2-[[2-[2-oxo-3-(3-oxo-4H-pyrido[3,2-b][1,4]oxazin-6-yl)-1,3-oxazolidin-5-yl]ethylamino]methyl]-2,3-dihydro-1H-indene-4-carbonitrile]",< 0.0977 µM
8,"CCn1cc(C(=O)O)c(=O)c2ccc3c(c21)CC(CNCCC1CN(c2cnc4c(n2)NC(=O)CO4)C(=O)O1)C3 (centres unmarked) [Example 276, 1-Ethyl-4-oxo-8-[[2-[2-oxo-3-(3-oxo-4H-pyrazino[2,3-b][1,4]oxazin-6-yl)-1,3-oxazolidin-5-yl]ethylamino]methyl]-8,9-dihydro-7H-cyclopenta[h]quinoline-3-carboxylic acid]",0.635 µM
9,"Cc1nc(C)c2c(c1C)CC(CNCCC1CN(c3ccc4c(n3)NC(=O)CO4)C(=O)O1)C2 (centres unmarked) [Example 93, 6-[2-oxo-5-[2-[(1,3,4-trimethyl-6,7-dihydro-5H-cyclopenta[c]pyridin-6-yl)methylamino]ethyl]-1,3-oxazolidin-3-yl]-4H-pyrido[3,2-b][1,4]oxazin-3-one]",< 0.0977 µM
10,"COc1cc2c(c(C#N)n1)CC(CNCCC1CN(c3ccc4c(n3)NC(=O)CO4)C(=O)O1)C2 (centres unmarked) [Example 53, 3-methoxy-6-[[2-[2-oxo-3-(3-oxo-4H-pyrido[3,2-b][1,4]oxazin-6-yl)-1,3-oxazolidin-5-yl]ethylamino]methyl]-6,7-dihydro-5H-cyclopenta[c]pyridine-1-carbonitrile]",< 0.0977 µM
11,"CNC(=O)COc1cc(C)c2c(c1C)CC(CNCCC1CN(c3cnc4c(n3)NC(=O)CO4)C(=O)O1)C2 (centres unmarked) [Example 113, 2-[[4,7-dimethyl-2-[[2-[2-oxo-3-(3-oxo-4H-pyrazino[2,3-b][1,4]oxazin-6-yl)-1,3-oxazolidin-5-yl]ethylamino]methyl]-2,3-dihydro-1H-inden-5-yl]oxy]-N-methylacetamide]",0.323 µM
12,"COc1cc2c(c(Cl)n1)CC(CNCCC1CN(c3cnc4c(n3)NC(=O)CO4)C(=O)O1)C2 (centres unmarked) [Example 50, 6-[5-[2-[(1-chloro-3-methoxy-6,7-dihydro-5H-cyclopenta[c]pyridin-6-yl)methylamino]ethyl]-2-oxo-1,3-oxazolidin-3-yl]-4H-pyrazino[2,3-b][1,4]oxazin-3-one]",< 0.0977 µM
13,"N#Cc1cccc2c1CC(CNCCC1CN(c3ccc4c(n3)NC(=O)CO4)C(=O)O1)C2 (centres unmarked) [Example 5, 2-[[2-[2-oxo-3-(3-oxo-4H-pyrido[3,2-b][1,4]oxazin-6-yl)-1,3-oxazolidin-5-yl]ethylamino]methyl]-2,3-dihydro-1H-indene-4-carbonitrile]",< 0.0977 µM
14,"O=C1COc2ccc(N3CC(CCNCCC4Cc5cccc(Cl)c5C4)OC3=O)nc2N1 (centres unmarked) [Example 20, 6-[5-[2-[2-(4-chloro-2,3-dihydro-1H-inden-2-yl)ethylamino]ethyl]-2-oxo-1,3-oxazolidin-3-yl]-4H-pyrido[3,2-b][1,4]oxazin-3-one; formic acid]",0.139 µM
15,"Cc1ccnc2c1CC(CNCCC1CN(c3ccc4c(n3)NC(=O)CO4)C(=O)O1)C2 (centres unmarked) [Example 89, 6-[5-[2-[(4-methyl-6,7-dihydro-5H-cyclopenta[b]pyridin-6-yl)methylamino]ethyl]-2-oxo-1,3-oxazolidin-3-yl]-4H-pyrido[3,2-b][1,4]oxazin-3-one]",0.304 µM

# Other lines, results leading:
row,IC50,SMILES
1,0.166 µM,"O=C1COc2ncc(N3CC(CCNCC4Cc5c(F)cc(OCc6cc[nH]n6)c(F)c5C4)OC3=O)nc2N1 (centres unmarked) [Example 395, 6-[5-[2-[[4,7-difluoro-5-(1H-pyrazol-3-ylmethoxy)-2,3-dihydro-1H-inden-2-yl]methylamino]ethyl]-2-oxo-1,3-oxazolidin-3-yl]-4H-pyrazino[2,3-b][1,4]oxazin-3-one]"
2,0.659 µM,O=C1COc2ncc(N3CC(CCNCC4Cc5cc(OCCN6C(=O)CCC6=O)cc(F)c5C4)OC3=O)nc2N1 (centres unmarked) [Example 345]
3,< 0.0977 µM,"Cn1nnc(COc2cc(C#N)c3c(c2)CC(CNCCC2CN(c4cnc5c(n4)NC(=O)CO5)C(=O)O2)C3)n1 (centres unmarked) [Example 389, 6-[(2-methyltetrazol-5-yl)methoxy]-2-[[2-[2-oxo-3-(3-oxo-4H-pyrazino[2,3-b][1,4]oxazin-6-yl)-1,3-oxazolidin-5-yl]ethylamino]methyl]-2,3-dihydro-1H-indene-4-carbonitrile]"
4,< 0.0977 µM,"NC1(COc2cc(F)c3c(c2F)CC(CNCCC2CN(c4cnc5c(n4)NC(=O)CO5)C(=O)O2)C3)CC1 (centres unmarked) [Example 408, 6-[5-[2-[[5-[(1-aminocyclopropyl)methoxy]-4,7-difluoro-2,3-dihydro-1H-inden-2-yl]methylamino]ethyl]-2-oxo-1,3-oxazolidin-3-yl]-4H-pyrazino[2,3-b][1,4]oxazin-3-one; formic acid]"
5,0.144 µM,"CC(O)COc1cc(F)c2c(c1)CC(CNCCC1CN(c3cnc4c(n3)NC(=O)CO4)C(=O)O1)C2 (centres unmarked) [Example 351, 6-[5-[2-[[4-Fluoro-6-(2-hydroxypropoxy)-2,3-dihydro-1H-inden-2-yl]methylamino]ethyl]-2-oxo-1,3-oxazolidin-3-yl]-4H-pyrazino[2,3-b][1,4]oxazin-3-one; hydrochloride]"
6,< 0.0977 µM,"N[C@@H]1c2cccc(Cl)c2C[C@H]1CNCC[C@H]1CN(c2cnc3c(n2)NC(=O)CO3)C(=O)O1 [Example 402, 6-[(5S)-5-[2-[[(1S,2S)-1-amino-4-chloro-2,3-dihydro-1H-inden-2-yl]methylamino]ethyl]-2-oxo-1,3-oxazolidin-3-yl]-4H-pyrazino[2,3-b][1,4]oxazin-3-one]"
7,0.156 µM,"Cc1c(F)cnc2c1CC(CNCCC1CN(c3ccc4c(n3)NC(=O)CO4)C(=O)O1)C2 (centres unmarked) [Example 300, 6-[5-[2-[(3-fluoro-4-methyl-6,7-dihydro-5H-cyclopenta[b]pyridin-6-yl)methylamino]ethyl]-2-oxo-1,3-oxazolidin-3-yl]-4H-pyrido[3,2-b][1,4]oxazin-3-one]"
8,< 0.0977 µM,"N[C@@H]1c2cccc(Cl)c2C[C@H]1CNCC[C@@H]1CN(c2cnc3c(n2)NC(=O)CO3)C(=O)O1 [Example 422, 6-[(5R)-5-[2-[[(1S,2S)-1-Amino-4-chloro-2,3-dihydro-1H-inden-2-yl]methylamino]ethyl]-2-oxo-1,3-oxazolidin-3-yl]-4H-pyrazino[2,3-b][1,4]oxazin-3-one]"
9,< 0.0977 µM,"Cc1ncc(F)c2c1CC(C(C)NCC[C@H]1CN(c3cnc4c(n3)NC(=O)CO4)C(=O)O1)C2 (stereo partly drawn) [Example 330, 6-[(5S)-5-[2-[1-(4-fluoro-1-methyl-6,7-dihydro-5H-cyclopenta[c]pyridin-6-yl)ethylamino]ethyl]-2-oxo-1,3-oxazolidin-3-yl]-4H-pyrazino[2,3-b][1,4]oxazin-3-one; formic acid]"

# Same assay, conditions: strain Escherichia coli ATCC 25922; 10-point broth dilution, optical density at 600 nm over 16 h; read-out: Escherichia coli growth inhibition IC50
row,IC50,SMILES
1,0.516 µM,"N#Cc1cccc2c1CC(CNC1CCC3C(C1)OC(=O)N3c1ccc3c(n1)NC(=O)CO3)C2 (racemic) [Example 99, 2-[[[rac-3a,7a-cis-6,7a-trans-2-oxo-3-(3-oxo-4H-pyrido[3,2-b][1,4]oxazin-6-yl)-3a,4,5,6,7,7a-hexahydro-1,3-benzoxazol-6-yl]amino]methyl]-2,3-dihydro-1H-indene-4-carbonitrile; formic acid]"
2,0.453 µM,"Cc1ncc(F)c2c1CC(NC1CC(C3CN(c4cnc5c(n4)NC(=O)CO5)C(=O)O3)C1)C2 (single isomer, unassigned; isomer b) [Example 329, 6-[5-[3-[(4-fluoro-1-methyl-6,7-dihydro-5H-cyclopenta[c]pyridin-6-yl)amino]cyclobutyl]-2-oxo-1,3-oxazolidin-3-yl]-4H-pyrazino[2,3-b][1,4]oxazin-3-one, Isomer B]"
